According to patent US20250011878A1, “METHOD TO DETECT RNA BIOMARKERS” (ITALFARMACO SPA, priority 2021, published 2025):

Target: T1, HDAC6 (Mus musculus, UniProt Q9Z2V5)
T1 construct: Spleens were collected and total splenocytes suspension was prepared; from tissue; host or cells: spleen (splenocytes) of BALB/c mice bearing CT26 tumors
T1 sequence (Q9Z2V5 1-1149): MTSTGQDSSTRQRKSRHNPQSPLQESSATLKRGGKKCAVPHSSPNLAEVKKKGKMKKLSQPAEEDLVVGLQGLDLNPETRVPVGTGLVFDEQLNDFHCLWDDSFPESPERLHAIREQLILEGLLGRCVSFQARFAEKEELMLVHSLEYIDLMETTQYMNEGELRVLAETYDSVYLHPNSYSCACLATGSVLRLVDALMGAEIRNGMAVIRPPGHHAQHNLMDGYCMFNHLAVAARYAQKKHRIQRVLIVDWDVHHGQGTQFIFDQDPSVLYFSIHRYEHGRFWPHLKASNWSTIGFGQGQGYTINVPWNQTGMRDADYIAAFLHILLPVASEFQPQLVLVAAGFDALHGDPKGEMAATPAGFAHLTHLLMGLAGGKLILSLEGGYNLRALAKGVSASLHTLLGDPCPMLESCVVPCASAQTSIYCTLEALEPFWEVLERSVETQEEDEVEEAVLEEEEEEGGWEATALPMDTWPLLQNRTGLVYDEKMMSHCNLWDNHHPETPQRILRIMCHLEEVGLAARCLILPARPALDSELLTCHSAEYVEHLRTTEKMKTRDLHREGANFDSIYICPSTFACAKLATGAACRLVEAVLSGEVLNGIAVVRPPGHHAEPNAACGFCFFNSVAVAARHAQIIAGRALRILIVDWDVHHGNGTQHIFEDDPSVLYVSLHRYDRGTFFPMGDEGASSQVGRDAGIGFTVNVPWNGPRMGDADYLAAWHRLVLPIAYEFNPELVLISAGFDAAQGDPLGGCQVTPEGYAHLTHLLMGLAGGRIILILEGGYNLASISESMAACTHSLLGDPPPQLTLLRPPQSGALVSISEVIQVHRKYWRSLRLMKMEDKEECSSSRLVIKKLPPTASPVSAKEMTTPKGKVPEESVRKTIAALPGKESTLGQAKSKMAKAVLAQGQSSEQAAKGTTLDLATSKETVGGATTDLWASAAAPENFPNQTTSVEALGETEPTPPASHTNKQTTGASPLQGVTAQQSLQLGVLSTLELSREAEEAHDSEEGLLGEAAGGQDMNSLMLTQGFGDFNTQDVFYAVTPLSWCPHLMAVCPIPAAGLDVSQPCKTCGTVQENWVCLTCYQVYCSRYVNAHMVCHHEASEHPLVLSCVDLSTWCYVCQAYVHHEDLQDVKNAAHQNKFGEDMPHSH
Assay: Target engagement: tubulin acetylation in spleen of CT26 tumor bearing mice (western blot)
Format: in vivo, BALB/c mice
Conditions: 50 mpk os, 8 administrations (Table 9)
Description: Adult BALB/c mice were injected s.c. with 1×10^6 CT26 tumor cells (diluted to 100 μl with phosphate buffered saline) and treated with anti-PD1 or ITF3756 when the tumor volume reached 75-100 mm^3, to explore the modulation of genes in the tumor microenvironment by RNAseq. Since ITF3756 acts on the PD-1/PD-L1 axis, this approach allows the identification of genes specific and common to both treatments. The overall schedule is described in Table 9.
Whole cell extracts were obtained by lysing mice spleens with Triton Buffer (50Mm Tris-HCl ph 7.5, 250 mM NaCl, 50 mM NaF, 1 mM EDTA pH 8, 0.1% Triton), supplemented with protease and phosphatase inhibitors (Roche, Germany). Proteins were separated by SDS-PAGE, transferred onto PVDF membranes and blocked with PBS-T (Phosphate-buffared saline and 0.1% Tween-20 containing 5% non-fat dry milk for one hour at room temperature (RT). The incubation with primary antibodies was performed for two hours at RT, followed by incubation with the appropriate horseradish peroxidase-conjugated secondary antibody. Detection was performed with ECL Western Blot Reagent (Amerscham). The antibodies used were: mouse anti acetylated tubulin (Sigma, T6793), mouse anti tubulin (Sigma, T6074), goat anti-mouse IgG (H+L)-HRP conjugate (Bio-Rad, 1706516).
Densitometry analysis was performed using ImageJ software. […]
To ascertain HDAC6 inhibition by ITF3756, the spleen of the animals were collected at all sacrifice time points (1 hour, 4 hours, 18 hours and 24 hours). Tubulin acetylation and total tubulin were detected by western blotting.
Tumor bearing animals were sacrificed at various time points after the last administration. Spleens were collected and total splenocytes suspension was prepared. Pelleted cells were lysed to obtain a total protein extract […] by electrophoresis. Tubulin and acetyl-tubulin were detected after western blotting using specific antibodies.

O=C(NO)c1ccc(Cn2nnnc2-c2cccs2)cc1 [ITF3756, N-hydroxy-4-((5-(thiophen-2-yl)-1 H-tetrazol-1-yl)methyl)benzamide]
tubulin acetylation in spleen (1 hour after the last treatment): strong increase | tubulin acetylation in spleen (4 hours after the last treatment): maintained until 4 hours | tubulin acetylation in spleen (18 hours after the last treatment): still high and consistent | tubulin acetylation in spleen (24 hours after the last treatment): still detectable, but not in all the animals analysed
